This is an account of results in patent publication US8916681B2, “Compound, use and method” (Medical Research Council, priority 2007, dated 2014).

This test has as its system plasma LH, GH, prolactin and cortisol. Description: Central (third ventricle) infusion in OVX ewes: plasma LH, GH, prolactin, cortisol. It counts as in vivo, sheep. An excerpt:
Adult Corriedale ewes were housed under natural lighting and were bilaterally ovariectomized (OVX) at least 1 month before any experimental manipulations. Permanent indwelling third cerebral ventricular (3V) cannulae were implanted in a subsequent surgical procedure as previously described (Barker-Gibb et al., 1995, J. Endocrinol., 147:565-79). Approximately two weeks after 3V surgery, one external jugular vein was cannulated for blood sampling and animals housed in single pens; cannulae were kept patent with heparinized saline.
Ewes were assigned to two treatment groups (n=4 per group); kisspeptin antagonist (diluted in artificial cerebrospinal fluid, aCSF; 150 mM NaCl, 1.2 mM CaCl2, 1 mM MgCl2, 2.8 mM KCl) or control (aCSF only). The following day, infusion lines were connected to 3V cannulae and blood sampling commenced at 07.00 h. Samples were collected every 10 min. After 3 h of sampling, kisspeptin antagonist (or control) was infused into the 3V at a dose of 40 μg/h for 1 h, with an initial loading dose of 10 μg. Both kisspeptin antagonist and vehicle were infused at 200 μl/h for 1 h using Graseby® MS16A infusion pumps (Smiths Medical Australasia Pty. Ltd., Gold Coast, Qld, Australia). After infusion, 3V lines remained in place and blood sampling continued for a further 2 h (total of 6 h). Plasma was harvested immediately from samples, and frozen at −20 C until assayed.
Plasma LH concentrations were measured in duplicate, using the method of Lee et al. (1976, J. Reprod. Fertil., 46:1-6) with NIH-oLH-518 as standard. Assay results were calculated using the program of Burger et al. (1972, J. Lab. Clin. Med., 80:302-12). Assay sensitivity was 0.08 ng/ml and the intra-assay coefficient of variation was less than 10% over the range of 0.3-12.8 ng/ml. A pulse analysis of the LH data was performed based on the method described for GnRH (Clarke, 1993, Endocrinology, 133:1624-32).
All experimental procedures were conducted under a protocol approved by the Monash School of Biomedical Sciences Animal Ethics Committee. Adult Corriedale ewes were housed under natural lighting and were bilaterally ovariectomized (OVX) at least 1 month before any experimental manipulations. Permanent indwelling third cerebral ventricular (3V) cannulae were implanted in a subsequent surgical procedure as previously described (49). Approximately 2 weeks after 3V surgery, one external jugular vein was cannulated for blood sampling and animals housed in single pens; cannulae were kept patent with heparinized saline. Ewes were assigned to two treatment groups (4/group); peptide 234 (diluted in artificial cerebrospinal fluid, aCSF; 150 mM NaCl, 1.2 mM CaCl2, 1 mM MgCl2, 2.8 mM KCl) or control (aCSF only). The following day, infusion lines were connected to 3V cannulae and blood sampling commenced at 07.00 h. Samples were collected every 10 min. After 3 h of sampling, peptide 234 (or control) was infused into the 3V at a dose of 40 μg/h for 1 h, with an initial loading dose of 10 μg. Both peptide 234 and vehicle were infused at 200 μl/h using Graseby® MS16A infusion pumps (Smith Medical Australasia Pty. Ltd.). After infusion, 3V lines remained in place and blood sampling continued for a further 2 h (total of 6 h). Plasma was harvested immediately from samples, and frozen at −20 C until assayed.
Plasma LH concentrations were measured in duplicate, with NIH-oLH-518 as standard (49). Assay sensitivity was 0.1 ng/ml and the intra-assay coefficient of variation was less than 10% over the range of 0.3-12.8 ng/ml. Pulse analysis of the plasma LH data was as previously described (36). Plasma samples were assayed for GH in duplicate using the standard NIDDK-oGH-I-4 and NIDDK-anti-oGH-2 antiserum (50). The assay sensitivity was 1 ng/ml, the intra-assay CV was less than 10% between 4 and 51 ng/ml and the inter-assay CV was 20%.
Plasma prolactin concentrations were measured in duplicate using Sigma, Lot 114F-0558, NOL-7135 as standard (50). […]

Setting [1] is: before, during or after infusion.

Entries after “also recorded” stand apart in the source; their conditions may differ. Non-standard residues stand in square brackets, D forms with d. Residues, ends and D or L forms follow the SMILES beside them.

As to `CC(=O)N[C@H](C)C(=O)N[C@@H](CC(N)=O)C(=O)N[C@@H](Cc1c[nH]c2ccccc12)C(=O)N[C@@H](CC(N)=O)C(=O)NCC(=O)N[C@@H](Cc1ccccc1)C(=O)NCC(=O)N[C@H](Cc1c[nH]c2ccccc12)C(=O)N[C@@H](CCCNC(=N)N)C(=O)N[C@@H](Cc1ccccc1)C(N)=O` [Peptide 234] (Ac-[dA]NWNGFG[dW]RF-NH2), the “Mean GH” value by setting is: (After Infusion) 9.11 ± 1.44 ng/mL; (Before Infusion) 5.11 ± 1.48 ng/mL; (During Infusion, listed as Peptide-234) 14.07 ± 2.78 ng/mL; (During Infusion, listed as peptide 234) “significant increase; also recorded: increased; also recorded: appeared to increase”. For the same compound, the “Mean LH” value runs as follows: (After Infusion) “significant reduction; also recorded: reduced”; (Before Infusion) 2.73 ± 0.43 ng/mL; (During Infusion) 2.89 ± 0.55 ng/mL. The LH pulse amplitude by setting is: (After Infusion (240-360 min), listed as Peptide-234) 0.68 ± 0.05 ng/mL; (After Infusion (240-360 min), listed as peptide 234) “significant reduction; also recorded: diminished amplitude; also recorded: markedly reduced”; (Before Infusion (0-180 min)) 1.63 ± 0.28 ng/mL; (During Infusion (180-240 min), 40 μg/h, loading dose 10 μg) 1.82 ± 0.52 ng/mL. In addition, for the setting “after ventricular administration”, the “number of LH secretory pulses” value is “markedly reduced”. Also, the cortisol concentrations entry under setting [1] is recorded as “no effect”. For the same compound, the prolactin concentrations entry under setting [1] is “no effect”.
